Test results as given in patent EP0369079A1, “Pharmaceutical compositions with anti-cancer activity and method for the treatment of cancer” (priority 1988, dated 1990).
Counter-ions that a name gives are not always drawn. Like-named read-outs stand apart in the source and are kept apart here.

Key:
[1] = L-ascorbic acid in combination with other aromatic aldehydes or derivatives (synergy check); assay type: cell-based; conditions: used in combination with L-ascorbic acid
NHIK 3025 cells [2] = test: Cell survival (colony formation) after drug treatment; assay type: cell-based, Human; conditions: for Surviving fraction: 1440 min
Description: The cells are grown as monolayers in tissue culture flasks. […] The cells were kept in continuous exponential growth by frequent reculturing, i.e. every second and third day.
For measurment of cell survival, appropriate numbers of cells were seeded in plastic Petri dishes (⌀ = 5 cm). The number of cells seeded into each dish was adjusted such that the number of surviving cells would be approximately 150 per dish. While exponentially growing (asynchronous) cells were trypsinized before seeding, synchronized cells were seeded immediately after selection. […] After the desired time of treatment, the drug-containing medium was removed, and fresh medium was added. The dishes were rinsed once with the same medium as was to be added on addition or removal of drug. After 10 to 12 days at 37°C in a CO₂ incubator, the cells were fixed in ethanol and stained with methylene blue before the colonies were counted.
The cytotoxic effect of BASS and of ascorbic acid (Asc) used either alone or in simultaneous combination was measured on asynchronous, exponentially growing NHIK 3025 cells.

NHIK 3025 cells [3] = test: Rate of protein synthesis ([3H]valine incorporation related to [14C] protein label); assay type: cell-based, Human; conditions: Table 6, control 4.5
Description: Human cells of the established line NHIK 3025, originating from a cervical carcinoma in situ (Nordbye, K., and Oftebro, R. Exp. Cell Res., 58:458, l969), Oftebro, R., and Nordbye, K., Exp. Cell Res., 58:459-460, 1969) were cultivated in Medium E2a (Puck, T.T. et al., J. Exp. Med., 106: 145-165, 1957) supplemented with 20% human and 10% horse serum (Grand Island Biological Co.). The cells are grown as monolayers in tissue culture flasks. […] The cells were kept in continuous exponential growth by frequent reculturing, i.e. every second and third day.
The rate of protein synthesis was calculated as described in Rønning, ø. W. et al., J. Cell Physiol., 107: 47-57, 1981. Briefly, cellular protein was labelled to saturation during a 2-day preincubation with (¹⁴C)valine of constant specific radioactivity (0.5 Ci/mol) prior to the experiment. This was achieved by using a high concentration of valine so that the dilution of (¹⁴C) valine by intracellular valine and by proteolytically generated valine will be negligible (Rønning, ø. W., et al. Exp. Cell Res. 123:63-72, 1979), thus keeping the specific radioactivity at a constant level. The rate of protein synthesis was calculated from the incorporation of (³H) valine of constant specific activity. The incorporation measurements were related to the total of (¹⁴C) radioacitivty in protein at the beginning of the respective measurement periods and expressed as the percentage per hour (Rønning, ø. W. et al, J. Cell, Physiol. 107:47-57, 1981).
From earlier studies, it is known that determination of protein synthesis inhibition is a useful measure of anti-cancer activity. In the present study we have tested the protein synthesis inhibition as induced by both BASS and Asc alone, and by the two active agents in simultaneous combination. The experiment also included samples treated similarly, but where BASS-d₁ was used instead of BASS.

[4] = Homo sapiens, NHIK3025, 24 h, Table 4, 24 hours, 1.0 mM BASS or BASS-d1 alone (0 mM Asc), read-out: Surviving fraction
[5] = 1.0 mM BASS or BASS-d1 alone (0 mM Asc), per cent of the total cellular protein per hour
[6] = 3.2 mM BASS or BASS-d1 alone (0 mM Asc)

Structure (SMILES): OC1O[C@@H]2COC(c3ccccc3)O[C@H]2[C@H](O)[C@H]1O (stereo partly drawn) [4,6-O-benzylidene glucose]
- synergistic effects [1]: without observing any synergistic effects

Structure (SMILES): [2H]C1(c2ccccc2)OC[C@@H]([C@H]2OC(=O)C(O)=C2O)O1 (stereo partly drawn) [BASS-d₁, sodium salt of 5,6-O-benzylidene-L-ascorbic acid deuterated at the 1-position of the aldehyde group of the benzylidene moiety]
- viability at 1000 µM (NHIK 3025 cells [2]; [4]): 55 ± 5%
- rate of protein synthesis (NHIK 3025 cells [3]; [5]): 3.03±0.16 %/h
- rate of protein synthesis (NHIK 3025 cells [3]; [6]): 2.00±0.03 %/h

Structure (SMILES): O=C1O[C@H]([C@@H]2COC(c3ccccc3)O2)C(O)=C1O (stereo partly drawn) [BASS, sodium salt of 5,6-O-benzylidene-L-ascorbic acid]
- viability at 1600 µM (NHIK 3025 cells [2]; Homo sapiens, NHIK3025, 4 h, Table 3, 4 hours, 1.6 mM BASS alone, read-out: Surviving fraction): 80 ± 5%
- viability at 3200 µM (NHIK 3025 cells [2]; Homo sapiens, NHIK3025, 4 h, Table 3, 4 hours, 3.2 mM BASS alone, read-out: Surviving fraction): 36 ± 3%
- viability at 1000 µM (NHIK 3025 cells [2]; Homo sapiens, NHIK3025, 24 h, Table 1, 24 hours, 1.0 mM BASS alone (0 mM Asc), read-out: Surviving fraction): 76%
- viability at 1600 µM (NHIK 3025 cells [2]; Homo sapiens, NHIK3025, 24 h, Table 1, 24 hours, 1.6 mM BASS alone (0 mM Asc), read-out: Surviving fraction): 52 ± 2%
- viability at 3200 µM (NHIK 3025 cells [2]; Homo sapiens, NHIK3025, 24 h, Table 1, 24 hours, 3.2 mM BASS alone (0 mM Asc), read-out: Surviving fraction): 1.1 ± 0.1%
- viability at 1000 µM (NHIK 3025 cells [2]; [4]): 62 ± 5%
- viability at 1600 µM (NHIK 3025 cells [2]; Homo sapiens, NHIK3025, 24 h, read-out: Surviving fraction): 24 ± 3%
- viability at 500 µM (NHIK 3025 cells [2]; Homo sapiens, NHIK3025, Table 2 (further experiment, similar to Table 1), 0.5 mM BASS alone, read-out: Surviving fraction): 91 ± 7%
- viability at 1000 µM (NHIK 3025 cells [2]; Homo sapiens, NHIK3025, Table 2 (further experiment, similar to Table 1), 1.0 mM BASS alone, read-out: Surviving fraction): 63 ± 8%
- viability at 1600 µM (NHIK 3025 cells [2]; Homo sapiens, NHIK3025, Table 2 (further experiment, similar to Table 1), 1.6 mM BASS alone, read-out: Surviving fraction): 44 ± 3%
- viability at 3200 µM (NHIK 3025 cells [2]; Homo sapiens, NHIK3025, Table 2 (further experiment, similar to Table 1), 3.2 mM BASS alone, read-out: Surviving fraction): 3.9 ± 0.4%
- Surviving fraction (NHIK 3025 cells [2]; Table 1, 24 hours, 1.0 mM BASS alone (0 mM Asc), 1000 µM): 0.76±0.02
- rate of protein synthesis (NHIK 3025 cells [3]; [5]): 3.06±0.02 %/h
- rate of protein synthesis (NHIK 3025 cells [3]; [6]): 1.71±0.05 %/h

Structure (SMILES): O=C1O[C@H]([C@@H](O)CO)C(O)=C1O [Asc, L-ascorbic acid, reference compound]
- viability at 1600 µM (NHIK 3025 cells [2]; Homo sapiens, NHIK3025, 4 h, Table 3, 4 hours, 1.6 mM Asc alone, read-out: Surviving fraction): 91 ± 1%
- viability at 3200 µM (NHIK 3025 cells [2]; Homo sapiens, NHIK3025, 4 h, Table 3, 4 hours, 3.2 mM Asc alone, read-out: Surviving fraction): 27 ± 3%
- viability at 800 µM (NHIK 3025 cells [2]; Homo sapiens, NHIK3025, 24 h, Table 1, 24 hours, 0.8 mM Asc alone (0 mM BASS), read-out: Surviving fraction): 91 ± 9%
- viability at 1200 µM (NHIK 3025 cells [2]; Homo sapiens, NHIK3025, 24 h, Table 1, 24 hours, 1.2 mM Asc alone (0 mM BASS), read-out: Surviving fraction): 80%
- viability at 1600 µM (NHIK 3025 cells [2]; Homo sapiens, NHIK3025, 24 h, Table 1, 24 hours, 1.6 mM Asc alone (0 mM BASS), read-out: Surviving fraction): 61 ± 4%
- viability at 2400 µM (NHIK 3025 cells [2]; Homo sapiens, NHIK3025, 24 h, Table 1, 24 hours, 2.4 mM Asc alone (0 mM BASS), read-out: Surviving fraction): 40 ± 3%
- viability at 3200 µM (NHIK 3025 cells [2]; Homo sapiens, NHIK3025, 24 h, Table 1, 24 hours, 3.2 mM Asc alone (0 mM BASS), read-out: Surviving fraction): 11 ± 0.8%
- viability at 800 µM (NHIK 3025 cells [2]; Homo sapiens, NHIK3025, Table 2 (further experiment, similar to Table 1), 0.8 mM Asc alone, read-out: Surviving fraction): 95 ± 5%
- viability at 1200 µM (NHIK 3025 cells [2]; Homo sapiens, NHIK3025, Table 2 (further experiment, similar to Table 1), 1.2 mM Asc alone, read-out: Surviving fraction): 69 ± 2%
- viability at 1600 µM (NHIK 3025 cells [2]; Homo sapiens, NHIK3025, Table 2 (further experiment, similar to Table 1), 1.6 mM Asc alone, read-out: Surviving fraction): 54 ± 2%
- viability at 2400 µM (NHIK 3025 cells [2]; Homo sapiens, NHIK3025, Table 2 (further experiment, similar to Table 1), 2.4 mM Asc alone, read-out: Surviving fraction): 29 ± 1%
- viability at 3200 µM (NHIK 3025 cells [2]; Homo sapiens, NHIK3025, Table 2 (further experiment, similar to Table 1), 3.2 mM Asc alone, read-out: Surviving fraction): 8.7 ± 1%
- Surviving fraction (NHIK 3025 cells [2]; Table 1, 24 hours, 1.2 mM Asc alone (0 mM BASS), 1200 µM): 0.80±0.09
- rate of protein synthesis (NHIK 3025 cells [3]; 1.0 mM Asc alone): 2.96±0.04 %/h
- rate of protein synthesis (NHIK 3025 cells [3]; 3.2 mM Asc alone): 1.5±0.2 %/h
